Patent US20230146795A1, “ENHANCEMENT OF ANTI-TUMOR ACTIVITY OF SHP2 INHIBITOR PYRIMIDINONE IN COMBINATION WITH NOVEL CANCER MEDICINES IN CANCERS” (TAIHO PHARMACEUTICAL CO., LTD., priority 2020, published 2023)

How the values were obtained:
SHP2 = target: T1, SHP2 (Homo sapiens, UniProt Q06124); experiment: SHP2 biochemical assay (DiFMUP conversion); conditions: 10 pM SHP2, 0.25 μM pIRS1 peptide, 50 μM DiFMUP
T1 sequence (Q06124 1-593): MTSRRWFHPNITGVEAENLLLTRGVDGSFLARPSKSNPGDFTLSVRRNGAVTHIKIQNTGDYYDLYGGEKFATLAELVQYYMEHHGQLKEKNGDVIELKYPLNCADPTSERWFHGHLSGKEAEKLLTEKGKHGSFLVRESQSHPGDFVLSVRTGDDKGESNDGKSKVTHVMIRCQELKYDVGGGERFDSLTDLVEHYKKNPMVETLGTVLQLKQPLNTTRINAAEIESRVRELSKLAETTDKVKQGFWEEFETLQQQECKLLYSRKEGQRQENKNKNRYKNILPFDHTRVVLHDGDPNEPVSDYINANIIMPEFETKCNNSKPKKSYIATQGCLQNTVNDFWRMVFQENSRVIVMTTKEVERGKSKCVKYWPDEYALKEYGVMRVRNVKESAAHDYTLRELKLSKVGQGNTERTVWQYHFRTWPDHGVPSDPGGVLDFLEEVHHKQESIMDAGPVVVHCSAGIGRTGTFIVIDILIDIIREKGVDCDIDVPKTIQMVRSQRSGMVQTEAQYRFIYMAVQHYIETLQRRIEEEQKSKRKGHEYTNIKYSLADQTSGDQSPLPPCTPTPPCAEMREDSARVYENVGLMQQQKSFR
Procedure: (1) SHP2 Biochemical Assay SHP2 Activity was Monitored by Measuring the Conversion of the Surrogate Substrate 6,8-Difluoromethylumbelliferyl Phosphate (DiEMUP) to the Fluorescent Product, 6,8-Difluoromethylumbelliferone (DiFMU).
SHP2 was pre-incubated with test compounds and the activating peptide pIRS1 (H2N-LN(pY) IDLDLV-(PEG) 8-LST(pY)ASINFQK-amide) for 30 min, prior to addition of the 6,8-difluoromethylumbelliferyl phosphate (DiEMUP), (Thermo Fisher D6567). Final assay concentrations were 10 pM SHP2, 0.25 μM pIRS1 peptide, 50 μM DiFMUP, 25 mM Bis-Tris propane, pH 7.0, 150 mM NaCl, 0.05% (v/v) Tween-20, 0.5 mM TCEP and 5% (v/v) DMSO. Rates of reaction were then measured over 30 min by monitoring fluorescence on a BMG Pherastar reader at excitation 360 nm/emission 450 nm. IC50 values were calculated in singlicate from the normalized dose-response plots using four parameter logistic curve fit. The Experiment for each compound was carried out in one time or multiple times, and the IC50 values were shown as a single value (for a compound measured in a single experiment) or an average value (for a compound measured in multiple experiments).

[1] = tested on: pERK levels in HCC827 cells; experiment: Cellular pERK inhibition assay (In-Cell Western); type: cell-based; conditions: Homo sapiens, relative IC50
Procedure: pERK levels were determined using the In-Cell Western assay. HCC827 cells (ATCC, Manassas, USA) were seeded into 384-well plates at a density of 1×10^4 cells/well in RPMI1640 medium supplemented with 10% FBS and incubated 24 h. Compounds were diluted first in DMSO and then into serum-free medium, before being added to cells in quadruplicate to give a final concentration of 0.2% DMSO. Plates were incubated at 37° C. for the indicated time in a humidified atmosphere of 5% CO2 in air.
Following compound treatment, cells were fixed with formalin neutral buffer solution for 20 minutes at room temperature. Plates were washed three times with 0.1% Triton-X in PBS and cells were blocked for 1 hour with Odyssey blocking buffer (LI-COR, #927-40000). […] Levels of pERK were then expressed as percent of control, using DMSO treated samples as control. The relative IC50 values were calculated in quadruplicate from the normalized dose-response plots using four parameter logistic curve fit. The Experiment for each compound was carried out in one time or multiple times, and the IC50 values were shown as a single value (for a compound measured in a single experiment) or an average value (for a compound measured in multiple experiments).

[2] = tested on: human pancreatic cancer cell line MIA PaCa-2 (KRAS mutation); experiment: Antitumor effect on MIA PaCa-2 tumor subcutaneously implanted to CB17 SCID mouse; type: in vivo
Procedure: MIA PaCa-2 cell line carries KRAS mutation.
A human pancreatic cancer line, MIA PaCa-2 (available from American Type Culture Collection), suspended in a mixture of PBS and Matrigel was subcutaneously implanted to male CB17 SCID mice at 7-10 weeks of age (Charles River UK) at 5×10^6 cells/100 μl/mouse. Tumors were measured with a pair of digital calipers, and tumor volumes (TV) were calculated by applying the formula for ellipsoid. Mice with TV of 146 to 360 mm^3 were assigned to study groups such that average TV was equal among groups.
Oral administration of Compound 1 or its vehicle, and Compound 9 or its vehicle was started on Day 1. Compound 1 was dissolved in an acidified solution of 0.5% (w/v) hydroxypropyl methylcellulose (Sigma) and administered via oral gavage at 6 or 12 mg/kg/day. Compound 9 was suspended in 20% (v/v) PEG200 (Sigma) and 0.5% (w/v) methylcellulose (Sigma) and administered via oral gavage at 50 mg/kg/day. All treatments were given once a day for 21 consecutive days, except for the combination group receiving 12 mg/kg of Compound 1 and 50 mg/kg of Compound 9, in which the animals were treated for 5 days per week for 3 weeks.
Antitumor effects were evaluated by comparing the median relative tumor volumes (RTV) between control- and treated groups. RTV was calculated by dividing TV on any test day by TV on Day 1, expressed as a percentage. T/C (%), as a measure of anti-tumor activity, was calculated by dividing median RTV values of each compound-administered group by median RTV of the control group receiving both vehicles.

[3] = tested on: 97 cell lines harboring driver mutations in KRAS; experiment: In vitro cell line screening, 3D cultures (CellTiter-Glo 3D), KRAS panel; type: cell-based, human; conditions: sensitive = maximum inhibition greater than 50% relative to DMSO, max 3 μM Compound 1, 1 μM Compound 9, 120-hour incubation
Procedure: The effect of Compound 1 in combination with an ERK inhibitor, Compound 9, on 97 cell lines harboring driver mutations in KRAS (G12A, G12C, G12F, G12R, G12S, G12V, G13C, G13D, A59G, Q61H, Q61K, Q61L or A146T) was assessed using the following technique. Cells from human cancer cells lines (from commercial sources such as ATCC or ECCAC) were grown as 3D cultures by seeding cells into round-bottom ultra-low attachment 96-well tissue culture plates (Corning) followed by centrifugation. Cells were allowed to recover for 16-24 hours prior to compound treatment. Compounds or dimethyl sulfoxide (DMSO) were added at various combinations of compound concentrations in a final DMSO concentration of up to 0.5% (v/v). Following a total of 120-hour incubation, CellTiter-Glo 3D Reagent(registered trademark) (Promega) was added. Plates were incubated for 10 minutes with gentle shaking at room temperature to lyse the cells, then incubated for further 40 minutes at room temperature to stabilize luminescence signal. After mixing, the mixture was transferred to a fresh plate and luminescence was determined on EnVision plate reader (Perkin Elmer).
(§1) For both 3D and 2D assays, the combination was tested as matrix of various concentrations of Compound 1 and Compound 9. The maximum concentrations of Compound 1 and Compound 9 used were 3 μM and 1 μM, respectively. Signals were normalized to that of the average of the DMSO control wells. […] For each cell line, the maximum % inhibition values were obtained for Compound 1 alone, Compound 9 alone and the combination of both compounds. The degree of drug interaction (i.e. synergy, additivity or antagonism) was quantified for each cell line by the Bliss independence model using the Synergyfinder R package (Ref: He L. et al. (2018) Methods for High-throughput Drug Combination Screening and Synergy Scoring. In: von Stechow L. (eds) Cancer Systems Biology. Methods in Molecular Biology, vol 1711. Humana Press, New York, N.Y.). For each cell line, a single score metric, the sum of synergy and antagonism across screened drug concentrations (SUM_SYN_ANT) (Ref: Di Veroli G. Y. et al (2016) Bioinformatics 32(18):2866-2868), was calculated. Synergy was defined as a score of 21 or above.

[4] = tested on: 394 cell lines that do not depend on KRAS; experiment: In vitro cell line screening, 2D monolayers (CellTiter-Glo), KRAS-independent panel; type: cell-based, human; conditions: Non-KRAS panel, sensitive = maximum inhibition greater than 50% relative to DMSO, max 3 μM Compound 1, 1 μM Compound 9, 120-hour incubation
Procedure: (§2) Cells from human cancer cells lines (from commercial sources such as ATCC or ECCAC) were grown as 2D monolayers by seeding onto flat-bottom 96-well tissue culture plates (Corning). Cells were allowed to recover for 16-24 hours prior to compound treatment. Compounds or dimethyl sulfoxide (DMSO) were added at various combinations of compound concentrations in a final DMSO concentration of up to 0.5% (v/v). Following a total of 120-hour incubation, CellTiter-Glo reagent(registered trademark) (Promega) was added. Plates were incubated for 10 minutes with gentle shaking at room temperature to lyse the cells, then incubated for further 10 minutes at room temperature to stabilize luminescence signal. After mixing, the mixture was transferred to a fresh plate, and luminescence was determined on EnVision plate reader (Perkin Elmer).
as §1

491 cell lines = experiment: In vitro cell line screening, both panels overall; type: cell-based, human; conditions: Total panel, sensitive = maximum inhibition greater than 50% relative to DMSO, max 3 μM Compound 1, 1 μM Compound 9, 120-hour incubation
Procedure: as §2, with “as 3D cultures” for “as 2D monolayers”, “seeding cells into round-bottom ultra-low attachment” for “seeding onto flat-bottom”, “plates (Corning) followed by centrifugation.” for “plates (Corning).”, “CellTiter-Glo 3D Reagent(registered” for “CellTiter-Glo reagent(registered”, “further 40” for “further 10”, “fresh plate” for “fresh plate,”
as §2, §1

| IC50 (SHP2) [nM] | IC50 [1] [nM] | SMILES | partial regression (tumor shrinkage of 50% or above), mice ([2]; Compound 9 alone 50 mg/kg/day) | T/C ([2]; Compound 9 alone 50 mg/kg/day oral, once a day, Day 18) [%] | tumor response ([2]; Compound 9 alone 50 mg/kg/day, during the treatment period) | Number of cell lines sensitive [3] | Number of cell lines sensitive (% of total) [3] [%] | Number of cell lines sensitive [4] | Number of cell lines sensitive (% of total) [4] [%] | Number of cell lines sensitive (491 cell lines) | Number of cell lines sensitive (% of total) (491 cell lines) [%] |
| --- | --- | --- | --- | --- | --- | --- | --- | --- | --- | --- | --- |
| 4 | 35 | CCn1cc2c(Cl)c(-c3c[nH]c4nc(N5C[C@H]6CC[C@@H]5[C@@H]6N)n(C)c(=O)c34)ccc2n1 [Compound 3, 2-((1R,4R,7R)-7-amino-2-azabicyclo[2.2.1]heptan-2-yl)-5-(4-chloro-2-ethyl-2H-indazol-5-yl)-3-methyl-3,7-dihydro-4H-pyrrolo[2,3-d]pyrimidin-4-one] |  |  |  |  |  |  |  |  |  |
|  |  | COc1cc(F)cc([C@@H](CO)NC(=O)[C@@H](C)N2Cc3ccc(-c4nc(NC5CCOCC5)ncc4Cl)cc3C2=O)c1 [Compound 9, (2R)-2-(6-{5-chloro-2-[(oxan-4-yl)amino]pyrimidin-4-yl}-1-oxo-2,3-dihydro-1H-isoindol-2-yl)-N-[(1S)-1-(3-fluoro-5-methoxyphenyl)-2-hydroxyethyl]propanamide] | 1 out of 8 | 29 | tumor stasis | 80 | 82.5 | 204 | 51.8 | 284 | 57.8 |
